Row | melting point [°C] | Structure (SMILES)
1 | 59 to 63.5 | CC(C)C[C@@H](C#N)NC(=O)[C@@H]1CCCC[C@@H]1NC(=O)c1cc2ccccc2n1CCO
2 | 158 to 159 | COC(=O)c1cn2c(=O)c(C)c(C)nc2s1
3 | 93 to 99 | COc1ccc(C2CCN(C)CC2)cc1Nc1ncc2ccc(-c3ccccc3N(C)S(C)(=O)=O)n2n1
4 | 55 to 57 | CCC(=O)N1CCSc2cccc(Cl)c2C1
5 | 69.5 to 72.5 | CCOC(=O)c1ccc(NCCCCCCc2ccccc2)cc1
6 | 96 to 98 | N#CCCCCn1ccc(NC(=S)NCC(F)(F)F)n1
7 | 200 | CCCCC1=C(C#N)C(c2cccc3nonc23)c2c[nH]nc2N1 (configuration not stated)
8 | 206 to 207 | CCCCn1c(=O)c2[nH]c(/C=C/c3cc(OC)c(OC)c(OC)c3)nc2n(CCCC)c1=O
9 | 83.1 to 84.2 | CCCCc1c(-c2cc(C)c(O)c(C)c2)[nH]c2ccccc12
10 | 271 to 274 | Cc1c(F)c(F)c(Cl)c2c1c(=O)c(C(=O)O)cn2-c1cc(N)c(F)cc1F
11 | 191 to 192 | Brc1ccccc1Sc1nc2ccccc2n2cncc12
12 | 91 to 92 | CC(C)(C)OC(=O)NCCc1ccc(OCCC2Oc3ccccc3N(Cc3cccc(Cl)c3)C2=O)cc1 (configuration not stated)
13 | 130 to 133 | CCn1c2ccccc2c2cc3cccc(C=O)c3cc21
14 | 201 to 204 | CCN(CC)c1ccc(/C=C/c2cc(/C=C/c3ccc4cc[nH]c4c3)[nH]n2)cc1
15 | 231 to 234 | O=C(Nc1ccc(C(=O)N2Cc3cccn3Cc3ccccc32)cc1)c1cc(Cl)cc(Cl)c1Cl
16 | 198 to 199 | Nc1nc(NCCO)nc(-c2cc(Cl)ccc2Cl)n1
17 | 239 | CC12CCC(=O)C=C1CCC1C2CCC2(C)C1CCC2(O)C(=O)CCl (configuration not stated)
18 | 336 to 339 | O=c1[nH]c2ccc([C@H]3CC[C@H](NCCCc4ccc(F)cc4)CC3)cc2[nH]1
19 | 181 to 183 | CN1Cc2c(-c3noc(CN)n3)ncn2-c2sccc2C1=O
20 | 126 to 127 | N#CCCNC(=O)c1cccc(-c2cccn3cc(Cc4cccc(C(F)(F)F)c4)nc23)c1
21 | 215 to 218 | O=C(O)c1cc(-c2ccc3c(c2)CCO3)nn(Cc2ccc(F)cc2)c1=O
22 | 46 to 48 | CCOP(=O)(OCC)C(CCc1cc(C)nc2c(Br)c(-c3ccccc3)nn12)P(=O)(OCC)OCC
23 | 187 to 190 | Clc1ccc(CNc2nc(-c3cccc(Cl)n3)nc3ccccc23)cc1

Row | melting point [°C] | Structure (SMILES)
24 | 274 | COc1ccc(N=Nc2ccc(O)c(C(=O)Nc3ccc4[nH]cnc4c3)c2)cc1
25 | 112 to 114 | COC1(NC(=O)OCc2ccccc2)CNC1=O (configuration not stated)
26 | 144 | CNC(=O)n1sc(SC)nc1=O
27 | 84 to 85 | CSc1ncccc1NC(=O)CCCCCCCCSc1nc2ccccc2o1
28 | 284 to 286 | COC(=O)c1c(Cl)ccc2[nH]c(Sc3cccc4c(S(C)(=O)=O)c[nH]c34)nc12
29 | 164 | COc1ccc(S(=O)(=O)N(CC#N)c2ccc(Cl)cc2C(=O)c2ccccc2Cl)cc1OC
30 | 121 to 122 | CC(=O)OCC1OC(n2c(Cl)nc3ccc(Br)cc32)C(OC(C)=O)C1OC(C)=O (configuration not stated)
31 | 184 to 185 | CCOC(=O)NN=Cc1c[nH]c(Cc2ccccc2)n1
32 | 186 to 187 | O=CC(=Cc1ccccc1OCc1ccc(Cl)cc1)C(C=O)=Cc1ccccc1OCc1ccc(Cl)cc1
33 | 160 to 164 | CCc1c(-c2ccc(O)cc2)n(Cc2ccc(OCCN3CCCCC3)cc2)c2ccc(O)cc12
34 | 105 to 107 | NNC(=O)NCCSSc1ccccn1
35 | 234 to 236 | Cn1nc(-c2nc(C#Cc3ccccc3)c(N)nc2-c2ccccc2)ccc1=O
36 | 163 to 164 | O=C(c1ccc(-n2ccc(C3CC3)n2)cc1C(F)(F)F)N1Cc2cccn2Cc2ccccc21
37 | 63 to 64 | C=CCOC(=O)c1ccc(COC(=O)c2ccc(OC(C)C)c(C(C)(C)C)c2)cc1
38 | 288 to 290 | CC(C)(C)C(=O)c1c[nH]c2ncc(-c3ccc(N4CCN(S(C)(=O)=O)CC4)cc3)nc12
39 | 152 | O=C(O)CSCC(O)CN1CCCCC1 (configuration not stated)
40 | 106 to 108 | COc1ccc(CN(CCN(C)CCCCNC(=NCCCOc2cccc(CN3CCCCC3)c2)NC#N)c2ccccn2)cc1
41 | 140 to 142 | CC(C)COc1ccc(C(=O)NCC(=O)O)cc1
42 | 145 to 150 | CCN(CC)CCc1ccc(NC(=O)C#Cc2ccc(C(F)(F)F)cc2Cl)cc1
43 | 155 to 157 | COc1ccc2[nH]c(/C=C/C(=O)OCc3ccccc3)cc2c1
44 | 110 to 112 | Cc1c(-c2ccc(Cl)cc2Cl)nn(C)c1S(C)(=O)=O
45 | 240 to 242 | CC(=O)S[C@H]1C[C@@H](C(=O)Nc2cccc(C(=O)NS(C)(=O)=O)c2)N(C(=O)OCc2ccc([N+](=O)[O-])cc2)C1
46 | 168 to 170 | CN1CCN(c2ccc(F)cc2C=C2CCCN(c3ccc(F)c(F)c3)C2=O)CC1

Row | melting point [°C] | Structure (SMILES)
47 | 175 to 176 | CCOCc1nc2c(N)nc3ccccc3c2n1CCCC1(O)CCCCC1
48 | 144 to 146 | CNc1ncnc(N2CCc3ccccc3CC2)c1[N+](=O)[O-]
49 | 99 | CCCCCCc1cnc(-c2ccc(OC[C@H]3CC[C@H](CCCC)CC3)cc2)nc1
50 | 90 to 92 | CC(=O)Oc1ccccc1C(=O)NC(S(=O)C(C)C)C(Cl)(Cl)Cl (configuration not stated)
51 | 132 to 133 | CC(C)(C)OC(=O)N1CCN(c2ccc(N3CCN(Cc4ccccc4)CC3)cc2)CC1
52 | 165 to 166 | N#Cc1cccc(N(C(=O)NC2CCN(Cc3ccccc3)CC2)C2CCCC2)c1
53 | 151 to 153 | Cc1ccc(N(C)S(=O)(=O)c2cccnc2Cl)c2[nH]c(C3=NCC(CN4CCOCC4)S3)cc12 (configuration not stated)
54 | 152 to 154 | Nc1cccc(-c2ccc(CCN3CCN(C(=O)c4ccco4)CC3)cc2)n1
55 | 43 to 45 | CCOC(=O)c1c(C(F)F)nc(C(F)(F)F)c(C(=O)OCC)c1-c1ccncc1
56 | 191 to 195 | CCCCc1oc2ccccc2c1C(=O)Nc1ccc2c(Br)c(OC(Cc3ccccc3)C(=O)O)ccc2c1 (configuration not stated)
57 | 95.2 | CCCCCCCCCCCCCCCC(=O)OCC1(O)COC(O)(COC(=O)CCCCCCCCCCCCCCC)CO1 (configuration not stated)
58 | 178 to 179 | O=c1c(O)coc2ccccc12
59 | 45.5 | COC(CC#N)=NC#N
60 | 103 to 104 | O=C(CCO)Nc1cccc(S)c1
61 | 144 to 148 | O[C@@H]1c2cc3c(cc2CC[C@H]1NCCc1ccccc1)CCO3 (relative stereo)
62 | 74 | C=CCOc1cc(N)c([N+](=O)[O-])cc1I
63 | 254 | Cc1cc(-c2ccc(C(F)(F)F)nc2)nc(-c2cccc(-c3cccc(S(N)(=O)=O)c3)n2)n1
64 | 134 | CCOC(=O)c1nn(-c2ccc(OC(F)F)cc2)c2cccc(Cl)c2c1=O
65 | 114 to 116 | CCOCCN(CC1=CCC(NC(C)=O)(Oc2ccccc2)C=C1)C(=O)C(Cl)Cl (configuration not stated)
66 | 102 to 103 | CCOC(=O)COc1ccc(Cc2ccc(O)cc2)c(Cl)c1Cl
67 | 178 | Nc1cc(OCc2ccccc2)ccc1NC(=O)c1ccc(C23CC4CC(CC(C4)C2)C3)c(OCc2ccccc2)c1
68 | 141 to 143 | COc1cc2c(c3c1OC(C)(C)C3)C(c1cccc(-c3cncnc3)c1)=NC(C)(C)C2
69 | 61.5 to 62.5 | COC(=O)C(C)(SC)c1ccc(C(OC)(OC)c2ccccc2)s1 (configuration not stated)

Row | melting point [°C] | Structure (SMILES)
70 | 176 to 179 | CCOc1ncc(I)cc1C(N)=O
71 | 194 to 196 | CC1Oc2c(cc(CN3CCN(c4ccc(C#N)cc4)CC3)cc2C2CC2)NC1=O (configuration not stated)
72 | 62 to 63 | O=Cc1ccc2ccccc2c1OCc1ccccc1
73 | 254 to 258 | N#CCOc1nsc2ccc(-n3c(=O)cc(C(F)(F)F)[nH]c3=O)cc12
74 | 168 | COc1ccc(-c2ccc(C(=O)Nc3cc4ncc(CN5CCCCCC5)cc4cc3C)c(F)c2)cc1
75 | 144 to 145 | CN(c1ccccc1[N+](=O)[O-])S(C)(=O)=O
76 | 122 to 124 | NC(=O)c1[nH]cnc1OC(=O)c1ccccc1C(=O)OCc1ccccc1
77 | 134 to 136 | CCOc1ccc(-c2nc(-c3cccc(C#N)n3)cs2)cc1OCC
78 | 60 to 62 | COC(=O)c1ccc2c(c1)-n1cccc1CO2
79 | 236 to 238 | O=C(Nc1cccnc1)N1CCc2cc(Cl)c(Cl)cc21
80 | 190 to 191 | Cc1c(Cl)n(C2OC(CO)C(O)C2O)c2cc(Cl)c(Cl)cc12 (configuration not stated)
81 | 198 to 199 | Cc1ccc(NS(=O)(=O)c2cccs2)c2[nH]c(C3=NCCS3)cc12
82 | 204 | FC(F)(F)c1cc(Cl)c2nc(N3CCN(c4ncccc4C(F)(F)F)CC3)[nH]c2c1
83 | 101 to 103 | CC1(C)CC(=O)C(C(=O)NS(=O)(=O)c2ccccc2)C(=O)C1
84 | 179 to 182 | NS(=O)(=O)c1c(C(=O)O)cnn1-c1cccc(Cl)n1
85 | 70 to 74 | CCC(=O)C1C(=O)CC(C#N)CC1=O (configuration not stated)
86 | 142 to 143 | Cn1c(Cc2ccc(Cl)c(Oc3cc(C#N)cc(C#N)c3)c2F)nn(COC(=O)CCC(=O)O)c1=O
87 | 226 to 233 | COc1cc2c(cc1Nc1ncc(Cl)c(Nc3cc(C(N)=O)ccc3OC)n1)CCN(C(=O)CN(C)C)CC2
88 | 9 | CC1=C(C)C(=O)N(CCN(C)C)C1=O
89 | 271 | Cc1cc(-c2cc(C(F)F)n3ncc(C(=O)Nc4nc(C)c(S(=O)(=O)NC(C)(C)CO)s4)c3n2)ccc1C(F)(F)F
90 | 227 to 228 | CN1CCN(C2=Nc3ccccc3N=C(N3CCN(C)CC3)C2)CC1
91 | 68 to 71 | CCOC(=O)CC(=O)Nc1ccc(F)cc1
92 | 207 to 209 | O=C(C=Cc1cc(F)cc(F)c1)c1cnc2sc3c(n12)CCCCC3

Row | Structure (SMILES) | melting point [°C]
93 | C[C@H]1C(=O)C[C@@H]2C[C@H]1OO[C@]2(C)/C=C/C(=O)c1ccc(Cl)cc1 | 127
94 | COC(=O)C1C(c2ccccc2)C2(C(=O)OC)C(C)=NC1(C)CC2C[Si](C)(C)C (configuration not stated) | 152 to 155
95 | CCOC(=O)c1nn(Cc2cn(C(c3ccccc3)(c3ccccc3)c3ccccc3)cn2)c2cc(OC)c(OC)cc12 | 184 to 186
96 | O=C(OCC1CC1)c1ncn2c1[C@@H]1CCN1C(=O)c1c(Br)cccc1-2 | 212 to 213
97 | Oc1ccc(Cc2ncc[nH]2)cc1 | 188 to 190

— a melting point compilation (Tetko et al.; mined from patent text by program, amines drawn as free bases though some values may be those of a salt)
